Experimental data taken from ChEMBL document CHEMBL3046368, “Synthesis of benzothiazole derivatives and their biological evaluation as anticancer agents” (2012).

How the values were obtained:
Format in all cases: functional
SK-MEL-28 = test: Cytotoxicity against Homo sapiens (human) SK-MEL-28 cells after 48 hr by SRB assay; details: SK-MEL-28, 48 h
NCI/ADR-RES = test: Cytotoxicity against Homo sapiens (human) NCI/ADR-RES cells after 48 hr by SRB assay
UO-31 = test: Cytotoxicity against Homo sapiens (human) UO31 cells after 48 hr by SRB assay; details: UO-31, 48 h
NCI-H322M = test: Cytotoxicity against Homo sapiens (human) NCI-H322M cells after 48 hr by SRB assay
[1] = Cytotoxicity against Homo sapiens (human) NSCLC cells assessed as cell growth at 10^-5 M after 48 hr by SRB assay relative to control; details: read-out: Activity
[2] = Cytotoxicity against Homo sapiens (human) colon cancer cells assessed as cell growth at 10^-5 M after 48 hr by SRB assay relative to control; details: Cancer cell lines, read-out: Activity
[3] = Cytotoxicity against Homo sapiens (human) breast cancer cells assessed as cell growth at 10^-5 M after 48 hr by SRB assay relative to control; details: Cancer cell lines, read-out: Activity
HCT-15 = test: Cytotoxicity against Homo sapiens (human) HCT15 cells after 48 hr by SRB assay; details: HCT-15, 48 h
[4] = Cytotoxicity against Homo sapiens (human) melanoma cells assessed as cell growth at 10^-5 M after 48 hr by SRB assay relative to control; details: read-out: Activity
SF-295 = test: Cytotoxicity against Homo sapiens (human) SF295 cells after 48 hr by SRB assay; details: SF-295, 48 h
SF-539 = test: Cytotoxicity against Homo sapiens (human) SF539 cells after 48 hr by SRB assay; details: SF-539, 48 h
UACC-257 = test: Cytotoxicity against Homo sapiens (human) UACC257 cells after 48 hr by SRB assay; details: UACC-257, 48 h
CAKI-1 = test: Cytotoxicity against Homo sapiens (human) Caki1 cells after 48 hr by SRB assay; details: CAKI-1, 48 h
HCT-116 = test: Cytotoxicity against Homo sapiens (human) HCT116 cells after 48 hr by SRB assay; details: HCT-116, 48 h
MOLT-4 = test: Cytotoxicity against Homo sapiens (human) MOLT4 cells after 48 hr by SRB assay; details: MOLT-4, 48 h
NCI-H23 = test: Cytotoxicity against Homo sapiens (human) NCI-H23 cells after 48 hr by SRB assay; details: NCI-H23, 48 h
MCF7 = test: Cytotoxicity against Homo sapiens (human) MCF7 cells after 48 hr by SRB assay; details: MCF7, 48 h
NCI-H226 = test: Cytotoxicity against Homo sapiens (human) NCI-H226 cells after 48 hr by SRB assay; details: NCI-H226, 48 h
SK-OV-3 = test: Cytotoxicity against Homo sapiens (human) SKOV3 cells after 48 hr by SRB assay; details: SK-OV-3, 48 h
OVCAR-4 = test: Cytotoxicity against Homo sapiens (human) OVCAR4 cells after 48 hr by SRB assay; details: OVCAR-4, 48 h
[5] = Cytotoxicity against Homo sapiens (human) ovarian cancer cells assessed as cell growth at 10^-5 M after 48 hr by SRB assay relative to control; details: Cancer cell lines, read-out: Activity
OVCAR-3 = test: Cytotoxicity against Homo sapiens (human) OVCAR3 cells after 48 hr by SRB assay; details: OVCAR-3, 48 h
A549 = test: Cytotoxicity against Homo sapiens (human) A549 cells after 48 hr by SRB assay; details: A549, 48 h
M14 = test: Cytotoxicity against Homo sapiens (human) M14 cells after 48 hr by SRB assay; details: M14, 48 h
[6] = Cytotoxicity against Homo sapiens (human) prostate cancer cells assessed as cell growth at 10^-5 M after 48 hr by SRB assay relative to control; details: Cancer cell lines, read-out: Activity
U-251 = test: Cytotoxicity against Homo sapiens (human) U251 cells after 48 hr by SRB assay; details: U-251, 48 h
SW-620 = test: Cytotoxicity against Homo sapiens (human) SW620 cells after 48 hr by SRB assay; details: SW-620, 48 h
A498 = test: Cytotoxicity against Homo sapiens (human) A498 cells after 48 hr by SRB assay; details: A498, 48 h
MDA-MB-435 = test: Cytotoxicity against Homo sapiens (human) MDA-MB-435 cells after 48 hr by SRB assay; details: MDA-MB-435, 48 h
SK-MEL-5 = test: Cytotoxicity against Homo sapiens (human) SK-MEL-5 cells after 48 hr by SRB assay; details: SK-MEL-5, 48 h
[7] = Cytotoxicity against Homo sapiens (human) leukemia cells assessed as cell growth at 10^-5 M after 48 hr by SRB assay relative to control; details: read-out: Activity
[8] = Cytotoxicity against Homo sapiens (human) CNSC cells assessed as cell growth at 10^-5 M after 48 hr by SRB assay relative to control; details: read-out: Activity
HCC 2998 = test: Cytotoxicity against Homo sapiens (human) HCC2998 cells after 48 hr by SRB assay; details: HCC 2998, 48 h
UACC-62 = test: Cytotoxicity against Homo sapiens (human) UACC62 cells after 48 hr by SRB assay; details: UACC-62, 48 h
SNB-19 = test: Cytotoxicity against Homo sapiens (human) SNB19 cells after 48 hr by SRB assay; details: SNB-19, 48 h
LOX IMVI = test: Cytotoxicity against Homo sapiens (human) LOXIMVI cells after 48 hr by SRB assay
NCI-H460 = test: Cytotoxicity against Homo sapiens (human) NCI-H460 cells after 48 hr by SRB assay; details: NCI-H460, 48 h
DU-145 = test: Cytotoxicity against Homo sapiens (human) DU145 cells after 48 hr by SRB assay; details: DU-145, 48 h
Malme-3M = test: Cytotoxicity against Homo sapiens (human) MALME-3M cells after 48 hr by SRB assay

SMILES	GI50 (SK-MEL-28)	GI50 (NCI/ADR-RES)	GI50 (UO-31)	GI50 (NCI-H322M)	growth at 10 µM [1]	growth at 10 µM [2]	growth at 10 µM [3]	GI50 (HCT-15)	growth at 10 µM [4]	GI50 (SF-295)	GI50 (SF-539)	GI50 (UACC-257)	GI50 (CAKI-1)	GI50 (HCT-116)	GI50 (MOLT-4)	GI50 (NCI-H23)	GI50 (MCF7)	GI50 (NCI-H226)	GI50 (SK-OV-3)	GI50 (OVCAR-4)	also measured
O=C(Nc1ccc(F)cc1)Nc1nc2ccc(OC(F)(F)F)cc2s1	3630 nM	3390 nM	3470 nM	4470 nM	5.63%	0.24%	19.2%	3020 nM	12%	2570 nM	2240 nM	3550 nM	2290 nM	2950 nM	3090 nM	2880 nM	2140 nM	2820 nM	2570 nM	2950 nM	growth at 10 µM [5]: 12.9%; GI50 (OVCAR-3): 2240 nM; GI50 (A549): 3470 nM; GI50 (M14): 4370 nM; growth at 10 µM [6]: 12.4%; GI50 (U-251): 3980 nM; GI50 (SW-620): 3720 nM; GI50 (A498): 2950 nM; GI50 (MDA-MB-435): 2950 nM; GI50 (SK-MEL-5): 2450 nM; growth at 10 µM [7]: 17.3%; growth at 10 µM [8]: 21.1%; GI50 (HCC 2998): 3890 nM; GI50 (UACC-62): 3550 nM; GI50 (SNB-19): 3720 nM; GI50 (LOX IMVI): 3240 nM; GI50 (NCI-H460): 3020 nM; GI50 (DU-145): 3470 nM; GI50 (Malme-3M): 2950 nM
N#Cc1ccc(NC(=O)Nc2nc3ccc(OC(F)(F)F)cc3s2)cc1	2290 nM	1550 nM	1660 nM	2400 nM	-6.18%	-11.2%	-5.18%	1380 nM	-9.77%	1170 nM	2880 nM	1350 nM	1580 nM	550 nM	1860 nM	575 nM	1000 nM	2000 nM	2630 nM	1620 nM	growth at 10 µM [5]: 8.95%; GI50 (OVCAR-3): 575 nM; GI50 (A549): 1200 nM; GI50 (M14): 2400 nM; growth at 10 µM [6]: 13%; GI50 (U-251): 1410 nM; GI50 (SW-620): 1620 nM; GI50 (A498): 468 nM; GI50 (MDA-MB-435): 1410 nM; GI50 (SK-MEL-5): 1150 nM; growth at 10 µM [7]: -17.4%; growth at 10 µM [8]: 2.6%; GI50 (HCC 2998): 1290 nM; GI50 (UACC-62): 741 nM; GI50 (SNB-19): 1510 nM; GI50 (LOX IMVI): 1480 nM; GI50 (NCI-H460): 603 nM; GI50 (DU-145): 2690 nM; GI50 (Malme-3M): 851 nM
